{"source": "paper PMC11567856", "about": "“A novel peptide‐based tau aggregation inhibitor as a potential therapeutic for Alzheimer's disease and other tauopathies” (Alzheimer's & Dementia, 2024)", "key": {"VQIINK": {"biological_target": "T1, VQIINK (Homo sapiens, UniProt P10636)", "T1 construct": "^275VQIINK^280 hexapeptide (motif found in three isoforms)", "assay": "ThT fluorescence, aggregation of VQIINK peptide", "type": "biochemical", "conditions": "ThT end-point 24 h; 20 µM VQIINK, 20 µM RI‐AG03 (equimolar), 5 µM heparin, pH 7.4; alone or combined with VQIVYK", "procedure": "Fluorescence was measured (λex = 442 nm, λem = 483 nm), and data were normalized. […] The addition of inhibitor to the growth phase was controlled by adding an equivalent volume of buffer alone.\nFIGURE 3 Lead peptide RI‐AG03 dose‐response and target specificity. […] (C) Concentration‐dependent inhibition of by Tau^Δ1‐250 by RI‐AG03. […] (E) Concentration‐dependent inhibition of by Tau^2N4R by RI‐AG03. […] (F) log10 scatter graph of Tau^2N4R inhibition by RI‐AG03 employing a curve fitting algorithm to calculate the IC50 at 5 µM. Experiments were conducted in triplicate and error bars were reported as standard deviation. One factor repeated measures ANOVA + Tukey post hoc statistical analysis: p > 0.05, *p ≤ 0.05, **p ≤ 0.01, ***p ≤ 0.001."}, "Tau^Δ1‐250": {"biological_target": "T2, Tau^Δ1‐250 (Homo sapiens, UniProt P10636)", "T2 construct": "Tau^Δ1‐250 (an aggregate prone truncated version of full‐length Tau); made in house; host or cells: E. coli BL21(DE3)", "T2 sequence (P10636 568-758, stated change not applied)": "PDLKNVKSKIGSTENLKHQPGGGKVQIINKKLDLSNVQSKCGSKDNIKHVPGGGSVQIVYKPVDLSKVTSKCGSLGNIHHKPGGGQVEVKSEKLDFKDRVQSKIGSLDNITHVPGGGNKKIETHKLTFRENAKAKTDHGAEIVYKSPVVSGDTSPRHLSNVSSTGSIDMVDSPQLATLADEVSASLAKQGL", "assay": "Seeded Tau^Δ1‐250 aggregation with preformed filaments, no heparin", "type": "biochemical", "conditions": "Tau monomers incubated with preformed Tau^Δ1‐250 filaments, no heparin (Figure S10)"}, "[1]": {"system": "Tau repeat domain (RD) with the P301S mutation fused to mCer and mClo, HEK293 biosensor cells", "assay": "Tau fibril seeding in FRET Tau biosensor cells", "type": "cell-based, human", "procedure": "Tau biosensor cells culture: RD P301S Tau biosensor cells have been previously described,[45] and in this case v2L cells were used. Cells were cultured in 10 cm dishes containing Dulbecco's Modified Eagle's Medium (DMEM) (Gibco) enriched with 10% FBS (HyClone), 1% penicillin/streptomycin (Gibco), and 1% GlutaMAX (Gibco) at 37°C with 5% CO2 in a humidified incubator.\n5 µM of tau fibrils (monomer equivalent) were incubated in PBS with peptide RI‐AG03 or scramble (0–500 µM) at 300 rpm agitation at 4°C for 16 h. The reaction was stopped by flash freezing in liquid nitrogen and stored at –20°C. Tau biosensor cells were plated at a density of 30,000 cells in 120 µL of media per well in a 96‐well plate. After 18 h, using Lipofectamine 2000 cells were transduced with 10 nM of treated fibrils that had been briefly sonicated for 30 s at 65 Amp (QSonica). Lipofectamine complexes were formed in 30 µL consisting of 14.17 µL Opti‐MEM (Gibco), 15 µL of treated fibrils diluted in PBS, and 0.83 µL lipofectamine 2000 (Invitrogen), bringing the total volume to 150 µL. […] Aggregates in Tau biosensors (10,000 minimum) were quantified by FRET flow cytometry in a LSRFortessa SORP (BD Biosciences). To detect the cerulean signal, cells were excited with a 405 nm laser, and fluorescence was captured at […]. For clover signal, cells were excited with a 488 nm laser and fluorescence was detected at 525/50 nm. Flow cytometry data were analyzed using a gating strategy previously described.[45], [47] The percentage of cells with positive FRET signal were quantified. Each condition was analyzed in quadruplicate. […]\nTo test RI‐AG03 efficacy in mammalian cells, we utilized a fluorescence resonance energy transfer (FRET) biosensor HEK293 cell line that stably expresses the Tau repeat domain (RD) with the P301S mutation fused to mCer and mClo. These cells[45] or prior generations[71] have been used extensively to quantify Tau seeding activity and measure intracellular aggregation.[71] […] Seeded aggregation was quantified by the percentage of FRET positivity."}, "[2]": {"system": "hTau^2N4R aggregates in Elav/hTau^2N4R flies", "assay": "AFM of insoluble Tau fraction from fly heads", "type": "in vivo, Drosophila melanogaster", "conditions": "6 weeks of treatment, 0.08 µM inhibitor (Figure 6 legend), insoluble Tau prep, n = 3, p = 0.0045", "procedure": "[…] Decapitated fly heads were homogenized in TBS/sucrose buffer (50 mM Tris‐HCl pH 7.4, 175 mM NaCl, 1 M sucrose, 5 mM EDTA and protease inhibitor cocktail). Samples were spun for 2 min at 1000 g, retaining the supernatant, which was then spun at 100,000 g for 30 min at 4°C. The supernatant included the aqueous soluble fraction and monomeric Tau “NS1.” The pellet was re‐suspended at ∼20°C–25°C in 5% SDS/TBS buffer (50 mM Tris‐HCl pH 7.4, 175 mM NaCl, 5% SDS, and protease inhibitor cocktail) and spun at 100,000 g for 30 at 25°C. The pellet “NP1” was washed three times with water to remove the remaining SDS from the fractionation and re‐suspended in 1X PBS. A solid glass bead was added to each sample and incubated overnight in a rotor at 4°C. AFM: NP1 (5 µL) was diluted in 1X PBS and 25 µL of the sample was placed in a freshly cleaved 10 mm mica disc. These were incubated at ∼20°C–25°C for 5 min. Samples were rinsed four times with ultrapure water and dried with compressed air. Samples were imaged in the air with a digital multimode Nanoscope IV AFM operating in tapping mode with an aluminum‐coated non‐contact/Tapping mode probe (resonance frequency 320 kHz and force constant 42 N/m). The images are representative of the sample and were taken at random points on the sample with a scan rate of 1–2 Hz. […] Quantification of aggregates was carried out using ImageJ software."}}, "note": "Where a SMILES comes first, the peptide text is derived from it. [ ]: non-standard residue; d: D form."}
{"molecule": "CC[C@@H](C)[C@@H](NC(=O)[C@@H](CCCCNC(C)=O)NC(=O)[C@@H](Cc1ccc(O)cc1)NC(=O)[C@@H](CCCCN)NC(=O)[C@H]1CCCN1C(=O)CNC(=O)[C@@H](CCCNC(=N)N)NC(=O)[C@@H](CCCNC(=N)N)NC(=O)[C@@H](CCCNC(=N)N)NC(=O)[C@@H](CCCNC(=N)N)NC(=O)[C@@H](CCCNC(=N)N)NC(=O)[C@@H](CCCNC(=N)N)NC(=O)[C@@H](CCCNC(=N)N)NC(=O)[C@@H](CCCNC(=N)N)NC(C)=O)C(=O)N[C@H](CCC(N)=O)C(=O)N[C@@H](C(=O)NCC(=O)N[C@H](CCCNC(=N)N)C(N)=O)C(C)C", "note": "[RI‐AG03] (Ac-[dR][dR][dR][dR][dR][dR][dR][dR]G[dP][dK][dY][dK](Ac)[dI][dQ][dV]G[dR]-NH2)", "values": [{"measurement": "effect on aggregation of VQIINK peptide", "setting": "VQIINK", "value": "dramatically reduced"}, {"measurement": "effect on seeded Tau^Δ1‐250 aggregation in the absence of heparin", "setting": "Tau^Δ1‐250", "value": "demonstrated efficacy at inhibiting seeded Tau^Δ1‐250 aggregation"}, {"measurement": "concentrations with peptide‐induced toxicity (decrease in FRET positivity)", "setting": "[1]; biosensor cells, fibrils preincubated with 0–500 µM peptide, Figure 5C", "value": "above 100 µM"}, {"measurement": "aggregates (green puncta) in biosensor cells by fluorescence microscopy", "setting": "[1]; preformed fibrils incubated with 30 µM peptide, compared with scramble peptide", "value": "fewer aggregates"}, {"measurement": "reduction in oligomeric and fibrillar Tau species (AFM)", "setting": "[2]", "value": 73, "unit": "%"}, {"measurement": "concentration at which toxicity begins to increase (LDH cytotoxicity)", "setting": "HEK‐293 cells", "value": 40, "unit": "µM"}, {"measurement": "doses found non‐toxic (LDH cytotoxicity)", "setting": "HEK‐293 cells", "value": "up to 30 µM"}]}
